This test concerns Plasmodium berghei. Description: In vivo antimalarial activity against Plasmodium berghei infected mouse model assessed as survival time at 8 mg/kg, po in presence of Mefloquine hydrochloride.

The structures appear in SMILES notation.

Regarding `CO[C@H]1O[C@@H]2O[C@@]3(C)CC[C@H]4[C@H](C)CC[C@@H]([C@H]1C)[C@@]24OO3`, the survival time is 23 days.

(Values after ChEMBL document CHEMBL5257025, “Artemisinin-Derived Dimers: Potent Antimalarial and Anticancer Agents” (J Med Chem, 2016).)
